Measured values from publication PMC12091851, “Replacing a Cereblon Ligand by a DDB1 and CUL4 Associated Factor 11 (DCAF11) Recruiter Converts a Selective Histone Deacetylase 6 PROTAC into a Pan‐Degrader” (Chemmedchem, 2025).

Experiment: Aqueous stability assay in DPBS buffer (HPLC)
Assay type: physicochemical
Details: DPBS pH 7.4, 10% DMSO, room temperature, 72 hours
Experimental: and A6. Compounds were diluted in DPBS buffer (pH = 7.4; final DMSO concentration: 10%) and the remaining compound content was analyzed by HPLC. The peak area at 0 h was used for normalization.
Mean ± standard deviation of n = 2 replicates.
Figure S4. Analysis of time dependent degradation by 1j of HDAC1 (A) and HDAC6 (B) by Simple Western™ immunoassay analysis of MM.1S cell lysates. MM.1S cells were treated with 1j (10 µM) or vehicle (DMSO) for the indicated time period. Quantification of protein levels presented as mean ± standard deviation of n = 3 biological replicates. Si gnificance compared to vehicle: * = p≤0.05 , […]
2.5. Aqueous Stability Assay
For stability testing in aqueous solution, a 10-fold concentrated DMSO solution of the respective compounds was diluted in DPBS to generate a 10 µM concentration (final DMSO content of 10%).
Samples of the aqueous solutions were taken after 0, 24, 48, and 72 h at room temperature and the amounts of the parental compound and potential fragments were monitored by HPLC gradient A (see 3.1 General Information). The peak area of the 0 h sample was used for normalization. All compounds were tested in duplicates and GraphPad Prim was used for evaluation and data visualization.
The cell lysis was performed as descripted in 3.2. Simple Western Immunoassay. […]
Afterwards, proteins were transferred with the Trans -Blot Turbo Transfer System (Catalog# 1704150, Bio-Rad) to Immobilon-FL PVDF membranes (Catalog# IPFL00005, Mill ipore Merck, Burlington, MA, USA) at 1.0 A for 30 min and treated with 5% milk-powder solution for 1 h at room temperature under slight agitation. […] The ChemiDoc XRS+ System (Catalog# 1708265 , Bio-Rad) was used for detection and Image Lab Software 6.1 (Bio-Rad) for quantification. […]
In vitro inhibitory activities against HDAC1, 2 , and 6 were measured using a previously published protocol.[3] In vitro inhibitory activities against HDAC4 were measured using a previously published protocol with slight modifications. […]

| SMILES | decomposition / reduction in content in DPBS buffer |
| --- | --- |
| O=C(CCCCCCNC(=O)c1ccc(N(C(=O)CCl)C(C(=O)NCc2ccccc2)c2ccc(Cl)c(Cl)c2)cc1)NO (centres unmarked) [Compound 2] | 31% |
| O=C(CCCCCCNC(=O)c1ccc(NC(=O)CCCCCCCCCCCN(C(=O)CCl)C(C(=O)NCc2ccccc2)c2ccc(Cl)c(Cl)c2)cc1)NO (centres unmarked) [Compound 1j] | more than 90% |
